The results in this text go back to patent publication US20250296938A1, “Compounds that Interact with the Ras Superfamily for the Treatment of Cancers, Inflammatory Diseases, Rasopathies, and Fibrotic Disease” (SHY Therapeutics, LLC, priority 2018, published 2025).

The test system of one assay is IL-6. In words: Mouse IL6 quantification assay, LPS-stimulated RAW 264.7 macrophages. Format: cell-based. The following applies: RAW264.7, 10 μM, LPS (100 ng/ml) added concurrently, 5 hours, RAW 264.7. As to the method:
(§1) Cell lines: Abelson murine leukemia virus transformed macrophage cell line RAW 264.7 was purchased from ATCC and grown in complete DMEM-High Glucose medium supplemented with penicillin (100 U/mL), streptomycin (100 μg/mL), and 10% heat-inactivated FBS at 37° C. in a humidified incubator with 5% CO2.
(§2) Method: Cells were plated at 25000-40000 cells/well density in a 96-well plate. After a 3-hour incubation, macrophages were starved with DMEM plus 0.5% FBS overnight. The next day the small molecules to be tested were added to the cells in the final concentration of 30 μM (with 0.3% DMSO) 3 hours prior to LPS stimulation (100 ng/ml). After LPS stimulation cells were incubated at 37° C. for 16 h. Alternatively, compounds were also tested at 10 μM and LPS (100 ng/ml) was added concurrently and incubated 5 hours at 37° C. At the end of the incubation periods, culture medium was collected and production of LPS-induced TNF-α and IL-6 cytokine was measured using ELISA detection kits.
(§3) Sandwich ELISA: The ELISA Immunoassays Quantikine Mouse TNF-alpha (catalog number MTA00B) and IL6 (catalog number M6000B) were purchased from R&D Systems Inc., Minneapolis, MN. These 4.5 hours solid phase ELISAs were used to measure mouse TNF-α or IL-6 levels in macrophages culture supernatants. Assays were executed according to the manufacturer specifications.
Compound `COc1c(O)nc(-c2ccccn2)nc1Oc1ccc(C(=O)N(C)C)cc1` [drawing 744] showed an inhibition at 10 µM of 1 to 25%.
`COc1c(O)nc(-c2ccccn2)nc1Nc1ccccc1` [drawing 745]: the inhibition at 10 µM is 76 to 100%.
Consider `CCn1cc(Nc2nc(-c3ccccn3)nc(O)c2OC)cn1` [drawing 746], for which the inhibition at 10 µM is 76 to 100%.
On the same count and under the same terms, as for `CCOc1cccc(Nc2nc(-c3ccccn3)nc(O)c2OC)c1` [drawing 747], the figure is 51 to 75%.
In the case of `COc1cccc(-c2sc3nc(-c4nccn4C)nc(NC4CCC(OC)C4)c3c2-c2ccccc2)c1F` (centres unmarked) [drawing 748], the inhibition at 10 µM is 76 to 100%.
Still for that read-out and setting: as for `COc1cccc(-c2sc3nc(-c4nccn4C)nc(N[C@@H]4CC[C@H](OC)C4)c3c2-c2ccccc2)c1F` [drawing 749], the figure is 26 to 50%; as for `COC1CCC(Nc2nc(-c3nccn3C)nc3sc(-c4cccc(O)c4F)c(-c4ccccc4)c23)C1` (centres unmarked) [drawing 750], 0%; as for `COc1c(F)cccc1-c1sc2nc(-c3nccn3C)nc(NC3CCC(OC)C3)c2c1-c1ccccc1` (centres unmarked) [drawing 751], 1 to 25%.
Regarding `COc1c(F)cccc1-c1sc2nc(-c3nccn3C)nc(N[C@@H]3CC[C@H](OC)C3)c2c1-c1ccccc1` [drawing 752], testing at 10 µM gave an inhibition of 0%.
For `COC1CCC(Nc2nc(-c3nccn3C)nc3sc(-c4cccc5[nH]ncc45)c(-c4ccccc4)c23)C1` (centres unmarked) [drawing 753], the inhibition at 10 µM is 76 to 100%.
On the same count and under the same terms, as for `CO[C@H]1CC[C@@H](Nc2nc(-c3nccn3C)nc3sc(-c4cccc5[nH]ncc45)c(-c4ccccc4)c23)C1` [drawing 754], the figure is 76 to 100%.
Still for that read-out and setting: as for `COC1CCN(c2nc(-c3nccn3C)nc3sc(-c4cccc(O)c4F)c(-c4ccccc4)c23)C1` (centres unmarked) [drawing 755], the figure is 26 to 50%.

The assay is the same for the next values; noted with them: RAW264.7, 30 μM, LPS-stimulated RAW 264.7 macrophages.
Consider `COc1ccc(-c2sc3nc(-c4nccn4C)nc(N4CCC(OC)C4)c3c2-c2ccccc2)cn1` (centres unmarked) [drawing 705], for which the inhibition at 30 µM lay within 76 to 100%.
On the same count and under the same terms, as for `COc1ncccc1-c1sc2nc(-c3nccn3C)nc(N3CCC(OC)C3)c2c1-c1ccccc1` (centres unmarked) [drawing 706], the figure is 76 to 100%; as for `COC1CCN(c2nc(-c3nccn3C)nc3sc(-c4cnc(C5CC5)o4)c(-c4ccccc4)c23)C1` (centres unmarked) [drawing 707], 76 to 100%.
The same measure, in the same setting: as for `COCCn1cc(-c2sc3nc(-c4nccn4C)nc(N4CCC(OC)C4)c3c2-c2ccccc2)cn1` (centres unmarked) [drawing 708], the figure is 76 to 100%; as for `COC1CCN(c2nc(-c3nccn3C)nc3sc(-c4ccncc4C)c(-c4ccccc4)c23)C1` (centres unmarked) [drawing 709], 76 to 100%; as for `COC1CCN(c2nc(-c3nccn3C)nc3sc(-c4cnn(C)c4)c(-c4ccccc4)c23)C1` (centres unmarked) [drawing 710], 26 to 50%.
On the same count and under the same terms, as for `COC1CCN(c2nc(-c3nccn3C)nc3sc(-c4ccc(CO)cc4)c(-c4ccccc4)c23)C1` (centres unmarked) [drawing 711], the figure is 76 to 100%; as for `COC1CCN(c2nc(-c3nccn3C)nc3sc(-c4ccc(N)nc4C)c(-c4ccccc4)c23)C1` (centres unmarked) [drawing 712], 1 to 25%.
Compound `COC1CCN(c2nc(-c3nccn3C)nc3sc(-c4ccccc4CO)c(-c4ccccc4)c23)C1` (centres unmarked) [drawing 713] showed an inhibition at 30 µM of 76 to 100%.
In the case of `COc1nscc1-c1sc2nc(-c3nccn3C)nc(N3CCC(OC)C3)c2c1-c1ccccc1` (centres unmarked) [drawing 714], the inhibition at 30 µM lay in the range of 76 to 100%.
The same measure, in the same setting: as for `COC1CCN(c2nc(-c3nccn3C)nc3sc(-c4ccnc(N(C)C)c4)c(-c4ccccc4)c23)C1` (centres unmarked) [drawing 715], the figure is 76 to 100%; as for `COC1CCN(c2nc(-c3nccn3C)nc3sc(Br)c(-c4ccccc4)c23)C1` (centres unmarked) [drawing 716], 51 to 75%; as for `COc1ccc(-c2c(-c3cccc(OC)c3F)sc3nc(-c4nccn4C)nc(N4CCC(OC)C4)c23)cc1` (centres unmarked) [drawing 717], 76 to 100%.

For another assay, the system named is TNF-α. Put plainly: Mouse TNF alpha quantification assay, LPS-stimulated RAW 264.7 macrophages. It counts as cell-based. Conditions: RAW264.7, 10 μM, LPS (100 ng/ml) added concurrently, 5 hours, RAW 264.7, read-out: TNFα % Inhibition. As for the experimental part:
as §1, §2, §3
On to `COc1c(O)nc(-c2ccccn2)nc1Oc1ccc(C(=O)N(C)C)cc1` [drawing 744], for which the inhibition at 10 µM lay within 1 to 25%.
On the same count and under the same terms, as for `COc1c(O)nc(-c2ccccn2)nc1Nc1ccccc1` [drawing 745], the figure is 1 to 25%; as for `CCn1cc(Nc2nc(-c3ccccn3)nc(O)c2OC)cn1` [drawing 746], 1 to 25%; as for `CCOc1cccc(Nc2nc(-c3ccccn3)nc(O)c2OC)c1` [drawing 747], 1 to 25%.
Still for that read-out and setting: as for `COc1cccc(-c2sc3nc(-c4nccn4C)nc(NC4CCC(OC)C4)c3c2-c2ccccc2)c1F` (centres unmarked) [drawing 748], the figure is 76 to 100%.
For the compound `COc1cccc(-c2sc3nc(-c4nccn4C)nc(N[C@@H]4CC[C@H](OC)C4)c3c2-c2ccccc2)c1F` [drawing 749], the inhibition at 10 µM fell in the range of 1 to 25%.
The same measure, in the same setting: as for `COC1CCC(Nc2nc(-c3nccn3C)nc3sc(-c4cccc(O)c4F)c(-c4ccccc4)c23)C1` (centres unmarked) [drawing 750], the figure is 0%; as for `COc1c(F)cccc1-c1sc2nc(-c3nccn3C)nc(NC3CCC(OC)C3)c2c1-c1ccccc1` (centres unmarked) [drawing 751], 0%.
On the same count and under the same terms, as for `COc1c(F)cccc1-c1sc2nc(-c3nccn3C)nc(N[C@@H]3CC[C@H](OC)C3)c2c1-c1ccccc1` [drawing 752], the figure is 0%.
The same measure, in the same setting: as for `COC1CCC(Nc2nc(-c3nccn3C)nc3sc(-c4cccc5[nH]ncc45)c(-c4ccccc4)c23)C1` (centres unmarked) [drawing 753], the figure is 51 to 75%; as for `CO[C@H]1CC[C@@H](Nc2nc(-c3nccn3C)nc3sc(-c4cccc5[nH]ncc45)c(-c4ccccc4)c23)C1` [drawing 754], 76 to 100%; as for `COC1CCN(c2nc(-c3nccn3C)nc3sc(-c4cccc(O)c4F)c(-c4ccccc4)c23)C1` (centres unmarked) [drawing 755], 1 to 25%.

The assay is the same for the next values; noted with them: RAW264.7, 30 μM, LPS-stimulated RAW 264.7 macrophages.
In turn, `COc1ccc(-c2sc3nc(-c4nccn4C)nc(N4CCC(OC)C4)c3c2-c2ccccc2)cn1` (centres unmarked) [drawing 705] had an inhibition at 30 µM of 76 to 100%.
Still for that read-out and setting: as for `COc1ncccc1-c1sc2nc(-c3nccn3C)nc(N3CCC(OC)C3)c2c1-c1ccccc1` (centres unmarked) [drawing 706], the figure is 76 to 100%; as for `COC1CCN(c2nc(-c3nccn3C)nc3sc(-c4cnc(C5CC5)o4)c(-c4ccccc4)c23)C1` (centres unmarked) [drawing 707], 26 to 50%.
The same measure, in the same setting: as for `COCCn1cc(-c2sc3nc(-c4nccn4C)nc(N4CCC(OC)C4)c3c2-c2ccccc2)cn1` (centres unmarked) [drawing 708], the figure is 76 to 100%.
Consider `COC1CCN(c2nc(-c3nccn3C)nc3sc(-c4ccncc4C)c(-c4ccccc4)c23)C1` (centres unmarked) [drawing 709], for which the inhibition at 30 µM was 26 to 50%.
On the same count and under the same terms, as for `COC1CCN(c2nc(-c3nccn3C)nc3sc(-c4cnn(C)c4)c(-c4ccccc4)c23)C1` (centres unmarked) [drawing 710], the figure is 51 to 75%.
Turning to `COC1CCN(c2nc(-c3nccn3C)nc3sc(-c4ccc(CO)cc4)c(-c4ccccc4)c23)C1` (centres unmarked) [drawing 711], the inhibition at 30 µM fell in the range of 76 to 100%.
With `COC1CCN(c2nc(-c3nccn3C)nc3sc(-c4ccc(N)nc4C)c(-c4ccccc4)c23)C1` (centres unmarked) [drawing 712], at 30 µM the inhibition was 0%.
Turning to `COC1CCN(c2nc(-c3nccn3C)nc3sc(-c4ccccc4CO)c(-c4ccccc4)c23)C1` (centres unmarked) [drawing 713], the inhibition at 30 µM was in the range of 76 to 100%.
The same measure, in the same setting: as for `COc1nscc1-c1sc2nc(-c3nccn3C)nc(N3CCC(OC)C3)c2c1-c1ccccc1` (centres unmarked) [drawing 714], the figure is 76 to 100%; as for `COC1CCN(c2nc(-c3nccn3C)nc3sc(-c4ccnc(N(C)C)c4)c(-c4ccccc4)c23)C1` (centres unmarked) [drawing 715], 76 to 100%.
Same read-out and setting: as for `COC1CCN(c2nc(-c3nccn3C)nc3sc(Br)c(-c4ccccc4)c23)C1` (centres unmarked) [drawing 716], the figure is 26 to 50%; as for `COc1ccc(-c2c(-c3cccc(OC)c3F)sc3nc(-c4nccn4C)nc(N4CCC(OC)C4)c23)cc1` (centres unmarked) [drawing 717], 76 to 100%.

For orientation: inhibition means the change of the read-out against control, counted positive when it falls.
